These results are taken from patent US5756511A, “Method for treating symptoms of a neurodegenerative condition” (Cell Therapeutics, Inc., priority 1995, dated 1998).

One assay has as its system endogenous APP. Kind of assay: Western Blot of endogenous APP in culture supernatants of SH-SY5Y cells. The format is cell-based. The note with it: SH-SY5Y incubated 18 hours with 5 nM human TNFA and increasing concentrations of compound. The procedure: This Example illustrates the effect of representative compounds nos. 2576, 2583, 3501, 3577, 4522, 4533, 4535 and 4537 used in the inventive method on endogenous APP expression.
Cell cultures were prepared as in Example 1 using SH-SY5Y human neuroblastoma cells. Culture supernatants from SH-SY5Y cells incubated for 18 hours with 5 nM human TNFA and increasing concentrations of representative compounds identified above were separated on a 4-20% SDS-polyacrylamide gel and transferred to nitrocellulose. The nitrocellulose filter was probed with anti-APP antibody (Boehringer Mannheim, Indpls, Ind.), and the results visualized by Enhanced Chemiluminecence (Amersham Life Sciences, Arlington Heights, Ill.).

Assay [1] has as its system human amyloid precursor protein (APP) promoter. Kind of assay: APP promoter-alkaline phosphatase (pHAPPro. 1) reporter assay in transfected SH-SY5Y cells stimulated with hTNFα. The format is cell-based. Conditions: SH-SY5Y transfected with pHAPPro. 1; 1 nM hTNFα; increasing concentrations of agent. The procedure: This example is an in vitro assay confirming activity of an ability of representative agents to inhibit APP synthesis by effecting the level of alkaline phosphatase in the culture medium of human neuroblastoma cells, SH-SY5Y (Beidler et al., 1978), expression of which is controlled by a human amyloid precursor protein (APP) promoter.
The SH-SY5Y were transfected with the promoter-alkaline phosphatase reporter gene construct pHAPPro. The transfected cells were prepared as follows:
A DNA fragment comprising nucleotide pairs -660 to +20 of the human APP promoter (Salbaum et al. 1988) was isolate by polymerase chain reaction using human placental DNA as a template. Xba I and ASP718 restriction endonuclease recognition sites were incorporated during amplification to facilitate subcloning upstream of an alkaline phosphatase reporter gene, forming the plasmid pHAPPro. 1, represented in FIG. 1. SH-SY5Y were subsequently transfected with pHAPPro. 1.
Comparing results obtained in this assay to a standard based on alkaline phosphatase expression controlled by a human phosphoglycerol kinase (PGK) promoter, relative to any cytotoxic effects an agent confirms therapeutic efficacy in the inventive method.
In all assays, controls were done in triplicate. Control assays specifically included assays using: 1) unstimulated cells; 2) cells stimulated with 1 nM hTNFαalone; 3) cells stimulated with 1 nM hTNFα and increasing concentrations of agent, as tested for all representative agents; 4) cells stimulated with 1 nM hTNFα and increasing concentrations of vehicle (100% ethanol), corresponding to vehicle concentrations in test agent preparations.
Subsequent validation of all results included repeating tests with an expanded dose range. Results obtained were compared to an agent's inhibition of constituitive promoter for the phosphoglycerol kinase gene and endogenous amyloid precursor protein expression in neuroblastoma cells
SH-SY5Y cells, prepared above, were plated into wells of a 96-well dish at a density of 20,000 cells per well in […] AIM V medium (Gibco/BRL, Gaithersburg, Md.: CAT# 21021-019). Dishes were incubated at 5% CO2 and 37° C. for 12 to 24 hours. […]
Culture medium […] from each well was transferred to a corresponding well of a 96-well ELISA dish and […] 1× SEAP (0.5M diethanolamine (pH 9.8); 0.25 mM MgCl2; 0.01 mM ZnSO4; 10 mM L-homoarginine; 1 mM para-nitrophenyphosphate, Berger et al., 1988.), prepared above, was added to each well. The plates were incubated 10 minutes in 5% CO2 and 37° C., after which the kinetic change in absorbance at 405 nm was measured on a BIOTEK plate reader.
All data were imported into plotting software for analysis. Triplicate data points were averaged and standard error (from mean) was calculated using accepted standards. […]
(In a reporter assay the amount or activity of a reporter protein is the signal.)

For `COc1cc(NC(=O)CCCCCCCCCCn2c(=O)c3c(ncn3C)n(C)c2=O)cc(OC)c1OC` [Compound 4535], the “inhibition of expression of endogenous APP (FIG. 3)” value (“inhibition of expression … (FIG. 3)” for short) with endogenous APP is listed as “inhibition of APP expression, in a dose-dependent manner”.

Consider `CCCCCCCCCCNCC(O)CCCCCCCCCn1c(=O)c2c(ncn2C)n(C)c1=O` (stereo not drawn) [Compound 2583], for which the “inhibition of expression … (FIG. 3)” value in the assay on endogenous APP is recorded as “inhibition of APP expression, in a dose-dependent manner”. `CCCCCCCCN(CC(CCCCCCCCCn1c(=O)c2c(ncn2C)n(C)c1=O)OC(C)=O)C(C)=O` (stereo not drawn) [Compound 4537]: in assay [1], the “inhibition of APP expression (FIG. 2)” value is given as “inhibit APP expression in a dose-dependent fashion”. The “inhibition of expression … (FIG. 3)” value in the assay on endogenous APP was “inhibition of APP expression, in a dose-dependent manner”. For `Cn1cnc2c1c(=O)n(CCCCCCCCCCC(=O)NCc1ccc3c(c1)OCO3)c(=O)n2C` [Compound 4533], the “inhibition of expression … (FIG. 3)” value with endogenous APP is reported as “inhibition of APP expression, in a dose-dependent manner”. With `COc1cc(CNCC(O)CCCCCCCCCn2c(=O)c3c(ncn3C)n(C)c2=O)cc(OC)c1OC` (stereo not drawn) [Compound 3501], the “inhibition of APP expression (FIG. 2)” value in assay [1] is “inhibit APP expression in a dose-dependent fashion”. Further, the “inhibition of expression … (FIG. 3)” value in the assay with endogenous APP is listed as “inhibition of APP expression, in a dose-dependent manner”. For `CCCCCCCCNCC(O)CCCCCCCCCn1c(=O)c2c(ncn2C)n(C)c1=O` (stereo not drawn) [Compound 2576], the “inhibition of expression … (FIG. 3)” value with endogenous APP is “inhibition of APP expression, in a dose-dependent manner”.

As to `COc1cc(CNC(=O)CCCCCCCCCCn2c(=O)c3c(ncn3C)n(C)c2=O)cc(OC)c1OC` [Compound 3577], the “inhibition of APP expression (FIG. 2)” value in assay [1] is “inhibit APP expression in a dose-dependent fashion”. Also, the “inhibition of expression … (FIG. 3)” value in the assay on endogenous APP is listed as “inhibition of APP expression, in a dose-dependent manner”.

For `COc1cc(CNC(CO)CCCCCCCCCn2c(=O)c3c(ncn3C)n(C)c2=O)cc(OC)c1OC` (stereo not drawn) [Compound 4522], in assay [1], the “inhibition of APP expression (FIG. 2)” value is reported as “inhibit APP expression in a dose-dependent fashion”. Moreover, the “inhibition of expression … (FIG. 3)” value in the assay on endogenous APP is recorded as “inhibition of APP expression, in a dose-dependent manner”.
